The record followed here is BindingDB's records for doi:10.1016/S0960-894X(00)80623-X (1992).

The target of this test is HMG-CoA reductase (Bos taurus). The test is described as follows: Compound was evaluated for inhibitory activity against HMG-CoA reductase in bovine ocular cell preparation.

`Cn1nnnc1C(/C=C/[C@@H](O)C[C@@H](O)CC(=O)O)=C(c1ccc(F)cc1)c1ccc(F)cc1` came in with a concentration for half-maximal inhibition (IC50) of 3000 nM.
